Source: US20040225172A1, “Use of ionic liquids to separate olefins, diolefins and aromatics” (NOVA Chemicals (International) S.A., priority 2002, published 2004)
Like-named read-outs stand apart in the source and are kept apart here.

Legend:
[1] = C5 hydrocarbon solubility in ionic liquid (volume change of hydrocarbon phase)
Experimental: The locations of all meniscuses were then recorded. […] The testing was conducted at ambient temperature.

[2] = Cyclo-C8 hydrocarbon solubility in ionic liquids
[3] = ambient temperature; for Propane absorbed (mol C3H8/L absorbent) / Propylene absorbed (mol C3H6/L absorbent): equilibrium
Experimental: The testing apparatus consists of two sample cylinders (one 1000 cc cylinder and one 150 cc cylinder) connected by ⅛-inch tubing with valves allowing for isolation of each cylinder. A digital pressure gauge indicates the larger cylinder pressure and the pressure of the system when the cylinders are not isolated.
To measure absorption, 50 mL of bmim^+ BF4^− absorbent was loaded into the smaller cylinder and the larger cylinder was pressurized with the hydrocarbon gas. The amount of gas absorbed by the sample of bmim^+BF4^− is proportional to the pressure drop that occurs when the sample is exposed to the test gas, and can be calculated knowing the internal volume of the closed system.
The sample was then exposed to the gas in the large 1000 cc cylinder as the valve separating the cylinders was opened. The initial pressure drop was recorded. The sample was stirred via magnetic stirrer. When the system came to equilibrium (no pressure changed for over 1 hour) the final absorption pressure was recorded and the cylinders were once again separated. This procedure could be repeated for different absorption pressures. Experiments were conducted at ambient temperature.
Between experimental runs, the absorbent was degassed by bubbling a nitrogen entrainment gas through the absorbent for 2 to 3 hours.

[4] = in bmim^+ BF4^− ionic liquid, ambient temperature

Structure (SMILES): C=CC(=C)C [Isoprene, isoprene]
- Selectivity over Isopentane [1, 4]: 18.0
- Solubility (mol C5/L ionic liquid) [1, 4]: 0.611 mol C5/L ionic liquid

Structure (SMILES): CCc1ccccc1 [Ethylbenzene, ethylbenzene]
- Solubility in mbpy^+ BF4^− (mol C8/L ionic liquid) [2]: 0.551 mol C8/L ionic liquid

Structure (SMILES): CCC(C)C [Isopentane, isopentane]
- Solubility (mol C5/L ionic liquid) [1]: 0.034 mol C5/L ionic liquid

Structure (SMILES): CCCCn1cc[n+](C)c1.F[B-](F)(F)F [bmim^+ BF4^−, 1-butyl-3-methylimidazolium tetrafluoroborate]
- C3H6:C3H8 Selectivity ([3]; 50.0 psig): 3.55
- Propane absorbed (mol C3H8/L absorbent) ([3]; 50.0 psig): 0.011 mol C3H8/L absorbent
- Propylene absorbed (mol C3H6/L absorbent) ([3]; 50.0 psig): 0.039 mol C3H6/L absorbent
- C3H6:C3H8 Selectivity ([3]; 72.6 psig): 9.92
- Propane absorbed (mol C3H8/L absorbent) ([3]; 72.6 psig): 0.012 mol C3H8/L absorbent
- Propylene absorbed (mol C3H6/L absorbent) ([3]; 72.6 psig): 0.119 mol C3H6/L absorbent

Structure (SMILES): CC=C(C)C [2-Methyl-2-Butene, 2-methyl-2-butene]
- Selectivity over Isopentane [1, 4]: 10.6
- Solubility (mol C5/L ionic liquid) [1, 4]: 0.360 mol C5/L ionic liquid
